This note sets out measurements from publication PMC8999917, “Structure–Activity Relationship of Synthetic Ginkgolic Acid Analogs for Treating Type 2 Diabetes by PTPN9 Inhibition” (International Journal of Molecular Sciences, 2022).

In the experiment the test system is Akt phosphorylation. Briefly: Western blot of Akt phosphorylation in C2C12 myotubes. It is filed as cell-based, mouse. The source says:
To further investigate the mechanism of action of 1e, we evaluated its effects on AMPK and AKT phosphorylation in C2C12 myotubes. […] In line with the results obtained in 3T3-L1 cells, in the absence of insulin, 1e had no effects on basal p-Akt expression levels (Figure 6A). Since insulin plays an important role in regulating glucose metabolism through the redistribution of GLUT4 from intracellular vesicles to the cell surface, it is important to describe the interaction between 1e and insulin in the Akt pathway. […] Next, we evaluated the protective effects of 1e against PA-induced insulin resistance in C2C12 myotubes. To generate an insulin resistance model, C2C12 myotubes were treated with 250 µM PA in a serum-free medium for 16 h. Akt phosphorylation levels in PA-treated C2C12 cells decreased by 50% compared to levels in normal C2C12 cells (Figure 6C). Furthermore, in the presence of insulin and GA, Akt phosphorylation levels decreased only by 30% compared to levels in normal cells. […] The expression levels of glucose uptake-related proteins were determined via Western blotting, as previously described. […] Secondary antibodies were added to the membranes at a concentration of 1:2000 for 1 h at room temperature, and immunoreactive bands were detected via ECL (GE Healthcare Korea Co., Ltd., Incheon, Korea). […]

Take `CCCCCCCCCCCCCOc1cccc(O)c1C(=O)O` [Compound 1e]: the “Akt phosphorylation on co-treatment with insulin” value (100 nM insulin) is reported as “synergistic Akt phosphorylation-improving effects with insulin”. Also, the “basal p-Akt expression levels” value (absence of insulin) is reported as “no effects”.
